Assays:
Type in all cases: functional, organism-based
Plasmodium falciparum [1] = assay: Antimalarial activity against Plasmodium falciparum D6
Plasmodium falciparum [2] = assay: Antimalarial activity against Plasmodium falciparum W2
Plasmodium falciparum [3] = assay: Antimalarial activity against Plasmodium falciparum K1; conditions: for EC50: read-out: EC50
Plasmodium falciparum [4] = assay: Antimalarial activity against Plasmodium falciparum 3D7
Plasmodium falciparum [5] = assay: Antimalarial activity against Plasmodium falciparum NF54
Plasmodium falciparum [6] = assay: Antimalarial activity against Plasmodium falciparum D10

| SMILES | IC50 (Plasmodium falciparum [1]) | IC50 (Plasmodium falciparum [2]) | further results |
| --- | --- | --- | --- |
| C[C@H]1[C@H](Nc2ccc(Br)cc2)O[C@@H]2O[C@]3(C)CC[C@H]4[C@H](C)CC[C@@H]1[C@@]24OO3 | 0.23 ng/mL | 0.23 ng/mL |  |
| C[C@@H]1CC[C@H]2[C@@H](C)C(=O)N(C(=O)c3ccc([N+](=O)[O-])cc3)[C@@H]3O[C@]4(C)CC[C@@H]1[C@@]23OO4 |  |  | IC50 (Plasmodium falciparum [3]): 0.6 ng/mL; IC50 (Plasmodium falciparum [4]): 0.45 ng/mL |
| CS(=O)(=O)N1CCN(CCCOc2ccc(C3CCC4(CC3)OOC3(OO4)C4CC5CC(C4)CC3C5)cc2)CC1 (stereo not drawn) |  |  | IC50 (Plasmodium falciparum [4]): 3.7 nM |
| C[C@H]1[C@@H](O[C@@H]2O[C@H](CO)[C@@H](O)[C@H](O)[C@H]2O)O[C@@H]2O[C@]3(C)CC[C@H]4[C@H](C)CC[C@@H]1[C@@]24OO3 | 2.48 ng/mL | 0.19 ng/mL |  |
| COC(=O)CC[C@@H](C)[C@H]1CCC2C3CC[C@@H]4CC5(CC[C@]4(C)C3C[C@H](OC(C)=O)[C@@]21C)OOC(C)(C(F)(F)F)OO5 (stereo partly drawn) |  |  | IC50 (Plasmodium falciparum [3]): 7.6 nM |
| C[C@@H]1CC[C@H]2[C@@H](CCCc3ccccc3)C(=O)O[C@@H]3O[C@]4(C)CC[C@@H]1[C@]32OO4 | 0.9 ng/mL | 1.35 ng/mL |  |
| CC1=C(C(O)(c2ccccc2)c2ccccc2)O[C@@H]2O[C@]3(C)CC[C@H]4[C@H](C)CC[C@@H]1[C@@]24OO3 |  |  | IC50 (Plasmodium falciparum [5]): 4.5 nM |
| CCCCNC(=O)CCC(C)[C@H]1CCC2C3C(C[C@H](OC(C)=O)[C@@]21C)[C@@]1(C)CC[C@]2(C[C@@H]1C[C@H]3OC(C)=O)OO[C@@]1(CC[C@]3(C)C4C[C@H](OC(C)=O)[C@@]5(C)C(CC[C@@H]5C(C)CCC(=O)NCCCC)C4[C@H](OC(C)=O)C[C@H]3C1)OO2 (stereo partly drawn) | 20.1 nM |  |  |
| COC(=O)CC(C)CO[C@H]1O[C@@H]2O[C@]3(C)CC[C@H]4[C@H](C)CC[C@@H]([C@H]1C)[C@@]24OO3 (stereo partly drawn) | 1.91 ng/mL | 0.48 ng/mL |  |
| CC1(C)CCCCC12OOC1(CCCCC1(C)C)OO2 (stereo not drawn) | > 1000 nM | > 1000 nM |  |
| C[C@H]1[C@H](N2CCNCC2)O[C@@H]2O[C@]3(C)CC[C@H]4[C@H](C)CC[C@@H]1[C@@]24OO3 |  |  | IC50 (Plasmodium falciparum [5]): 3.2 nM |
| CCCCCCCCS(=O)(=O)N1C(=O)[C@H](C)[C@@H]2CC[C@@H](C)[C@@H]3CC[C@]4(C)OO[C@]32[C@H]1O4 |  |  | IC50 (Plasmodium falciparum [3]): 1.1 ng/mL; IC50 (Plasmodium falciparum [4]): 2.1 ng/mL |
| CC(C)OC[C@H]1O[C@@H](O[C@H]2O[C@@H]3O[C@]4(C)CC[C@H]5[C@H](C)CC[C@@H]([C@H]2C)[C@@]35OO4)[C@H](O)[C@@H](O)[C@@H]1OC(C)C | 1.43 ng/mL | 0.31 ng/mL |  |
| CC1(C)OOC2(OCC34CC5CC(CC(C5)C3)C4)CCCC1C2 (stereo not drawn) |  | 270 nM | IC50 (Plasmodium falciparum [6]): 330 nM |
| C=C(c1ccc(F)cc1F)C1COC2(OO1)C1CC3CC(C1)CC2C3 (stereo not drawn) |  |  | IC50 (Plasmodium falciparum [4]): 25.7 nM |
| c1cc(C2CCC3(CC2)OOC2(OO3)C3CC4CC(C3)CC2C4)ccc1OCCNC1CCOCC1 (stereo not drawn) |  |  | IC50 (Plasmodium falciparum [4]): 0.5 nM |
| COC(=O)CC[C@@H](C)[C@H]1CCC2C3CC[C@@H]4CC5(CC[C@]4(C)C3C[C@H](OC(C)=O)[C@@]21C)OOC(C)(C)OO5 (stereo partly drawn) |  |  | IC50 (Plasmodium falciparum [3]): 3 nM |
| CCCC[C@H]1O[C@@H]2O[C@]3(C)CC[C@H]4[C@H](C)CC[C@@H]([C@H]1C)[C@@]24OO3 | 0.41 ng/mL | 0.16 ng/mL |  |
| C[C@H]1[C@H](Nc2ccccc2)O[C@@H]2O[C@]3(C)CC[C@H]4[C@H](C)CC[C@@H]1[C@@]24OO3 | 0.66 ng/mL | 0.66 ng/mL |  |
| CS(=O)(=O)N1CCN(CCOc2ccc(C3CCC4(CC3)OOC3(OO4)C4CC5CC(C4)CC3C5)cc2)CC1 (stereo not drawn) |  |  | IC50 (Plasmodium falciparum [4]): 3.5 nM |
| CCCCNC(=O)CCC(C)[C@H]1CCC2C3C(C[C@H](OC(C)=O)[C@@]21C)[C@@]1(C)CC[C@]2(C[C@@H]1C[C@H]3OC(C)=O)OO[C@@]1(CC[C@@H]3C[C@@H](OC(C)=O)C4C5CC[C@H](C(C)CCC(=O)NCCCC)[C@@]5(C)[C@@H](OC(C)=O)CC4[C@@]3(C)C1)OO2 (stereo partly drawn) | 9.29 nM |  |  |
| C[C@H]1[C@@H](O[C@H](CCC(=O)O)c2ccc(Br)cc2)O[C@@H]2O[C@]3(C)CC[C@H]4[C@H](C)CC[C@@H]1[C@@]24OO3 | 0.405 ng/mL | 0.313 ng/mL |  |
| C[C@@H]1CC[C@H]2[C@H](C[C@@]3(CCCCCCC[C@]4(C[C@@H]5C(=O)O[C@@H]6O[C@]7(C)CC[C@H]8[C@H](C)CC[C@@H]5[C@@]68OO7)C(=O)O[C@@H]5O[C@]6(C)CC[C@H]7[C@H](C)CC[C@@H]4[C@@]57OO6)C(=O)O[C@@H]4O[C@]5(C)CC[C@H]6[C@H](C)CC[C@@H]3[C@@]46OO5)C(=O)O[C@@H]3O[C@]4(C)CC[C@@H]1[C@]32OO4 |  |  | EC50 (Plasmodium falciparum [3]): 5.8 nM |
| C[C@@H]1CC[C@H]2[C@H](C[C@@]3(CCCCCC[C@]4(C[C@@H]5C(=O)O[C@@H]6O[C@]7(C)CC[C@H]8[C@H](C)CC[C@@H]5[C@@]68OO7)C(=O)O[C@@H]5O[C@]6(C)CC[C@H]7[C@H](C)CC[C@@H]4[C@@]57OO6)C(=O)O[C@@H]4O[C@]5(C)CC[C@H]6[C@H](C)CC[C@@H]3[C@@]46OO5)C(=O)O[C@@H]3O[C@]4(C)CC[C@@H]1[C@]32OO4 |  |  | EC50 (Plasmodium falciparum [3]): 20 nM |

| SMILES | IC50 (Plasmodium falciparum [1]) | IC50 (Plasmodium falciparum [2]) | further results |
| --- | --- | --- | --- |
| CC1(C)OOC2(OCc3ccccc3)CCCC1C2 (stereo not drawn) |  | 430 nM | IC50 (Plasmodium falciparum [6]): 800 nM |
| CCCCCCCC[C@H]1CCC2C3CC[C@H]4C[C@]5(CC[C@]4(C)C3CC[C@@]21C)OO[C@]1(CC[C@@H]2CCC3C4CC[C@H](CCCCCCCC)[C@@]4(C)CCC3[C@@]2(C)C1)OO5 (stereo partly drawn) | 155 nM |  |  |
| CC1=C(C(=O)c2ccccc2)O[C@@H]2O[C@]3(C)CC[C@H]4[C@H](C)CC[C@@H]1[C@@]24OO3 |  |  | IC50 (Plasmodium falciparum [5]): 4.6 nM |
| C[C@@H]1CC[C@H]2[C@@H](C)C(=O)N(C(=O)c3cccc([N+](=O)[O-])c3)[C@@H]3O[C@]4(C)CC[C@@H]1[C@@]23OO4 |  |  | IC50 (Plasmodium falciparum [3]): 0.6 ng/mL; IC50 (Plasmodium falciparum [4]): 0.46 ng/mL |
| C[C@@H]1CC[C@H]2[C@@H](C)C(=O)N(S(=O)(=O)c3ccc(C(F)(F)F)cc3)[C@@H]3O[C@]4(C)CC[C@@H]1[C@@]23OO4 |  | 2.39 nM | IC50 (Plasmodium falciparum [3]): 3.15 nM; IC50 (Plasmodium falciparum [5]): 2.04 nM |
| CCN(CC)Cc1ccc(C(C)O[C@H]2O[C@@H]3O[C@]4(C)CC[C@H]5[C@H](C)CC[C@@H]([C@H]2C)[C@@]35OO4)cc1O (stereo partly drawn) |  |  | IC50 (Plasmodium falciparum [3]): 0.18 ng/mL; IC50 (Plasmodium falciparum [5]): 0.36 ng/mL |
| C[C@@H]1CC[C@H]2[C@@H](C)C(=O)N(S(=O)(=O)c3cccc4cccnc34)[C@@H]3O[C@]4(C)CC[C@@H]1[C@@]23OO4 |  |  | IC50 (Plasmodium falciparum [3]): 2 ng/mL; IC50 (Plasmodium falciparum [4]): 1.9 ng/mL |
| C[C@@H]1CCCCC12OOC1(CCCC[C@@H]1C)OO2 (stereo partly drawn) [WR-148999] | 8.4 nM | 7.3 nM |  |
| C[C@@H]1CC[C@H]2[C@@H](CCCc3cc(C(F)(F)F)cc(C(F)(F)F)c3)C(=O)O[C@@H]3O[C@]4(C)CC[C@@H]1[C@]32OO4 | 0.78 ng/mL | 7.11 ng/mL | IC50 (Plasmodium falciparum [3]): 4.06 ng/mL |
| C[C@H]1[C@@H](OCc2ccc(C(=O)O)cc2)O[C@@H]2O[C@@]3(C)CC[C@H]4[C@H](C)CC[C@@H]1[C@@]24OO3 | 4.07 ng/mL | 1.38 ng/mL |  |
| C[C@@H]1CC[C@H]2[C@@H](CCCc3cc(F)cc(F)c3)C(=O)O[C@@H]3O[C@]4(C)CC[C@@H]1[C@]32OO4 | 0.82 ng/mL | 6.5 ng/mL | IC50 (Plasmodium falciparum [3]): 3.2 ng/mL |
| C[C@@H]1CC[C@H]2[C@H](C[C@@]3(CCCCCCCC4C(=O)O[C@@H]5O[C@]6(C)CC[C@H]7[C@H](C)CC[C@@H]4[C@@]57OO6)C(=O)O[C@@H]4O[C@]5(C)CC[C@H]6[C@H](C)CC[C@@H]3[C@@]46OO5)C(=O)O[C@@H]3O[C@]4(C)CC[C@@H]1[C@]32OO4 (stereo partly drawn) |  |  | EC50 (Plasmodium falciparum [3]): 3.1 nM |
| C[C@@H]1CC[C@H]2[C@@H](C)C(=O)N(S(=O)(=O)c3cccc([N+](=O)[O-])c3)[C@@H]3O[C@]4(C)CC[C@@H]1[C@@]23OO4 |  |  | IC50 (Plasmodium falciparum [3]): 2.2 ng/mL; IC50 (Plasmodium falciparum [4]): 2.1 ng/mL |
| C[C@@H]1CC[C@H]2[C@@H](C)C(=O)N(S(=O)(=O)c3ccc4ccccc4c3)[C@@H]3O[C@]4(C)CC[C@@H]1[C@@]23OO4 |  |  | IC50 (Plasmodium falciparum [3]): 0.2 ng/mL; IC50 (Plasmodium falciparum [4]): 2.8 ng/mL |
| C[C@H]1[C@H](N2CCN([C@@H]3O[C@H](CO)[C@H](O)[C@H]3O)CC2)O[C@@H]2O[C@]3(C)CC[C@H]4[C@H](C)CC[C@@H]1[C@@]24OO3 |  | 0.58 nM | IC50 (Plasmodium falciparum [6]): 0.66 nM |
| C[C@@H]1CC[C@H]2[C@@H](CCCc3ccc(Cl)cc3)C(=O)O[C@@H]3O[C@]4(C)CC[C@@H]1[C@]32OO4 | 1.9 ng/mL | 2.6 ng/mL |  |
| C[C@@H]1CCC[C@@H](C)C12OOC1(OO2)[C@@H](C)CCC[C@@H]1C | > 1000 nM | > 1000 nM |  |
| C[C@H]1[C@@H](O[C@H](CCC(=O)O)c2ccc(Cl)cc2)O[C@@H]2O[C@]3(C)CC[C@H]4[C@H](C)CC[C@@H]1[C@@]24OO3 | 0.38 ng/mL | 0.357 ng/mL |  |
| C[C@H]1[C@@H](Nc2cccc(F)c2)O[C@@H]2O[C@]3(C)CC[C@H]4[C@H](C)CC[C@@H]1[C@@]24OO3 | < 0.16 ng/mL | < 0.16 ng/mL |  |
| CCCCC(=O)C1=C(C)[C@@H]2CC[C@@H](C)[C@@H]3CC[C@]4(C)OO[C@@]23[C@H](O1)O4 |  |  | IC50 (Plasmodium falciparum [5]): 4.3 nM |
| C[C@@H]1CC[C@H]2[C@@H](C)C(=O)N(C(=O)Cc3ccc([N+](=O)[O-])cc3)[C@@H]3O[C@]4(C)CC[C@@H]1[C@@]23OO4 |  |  | IC50 (Plasmodium falciparum [3]): 0.4 ng/mL; IC50 (Plasmodium falciparum [4]): 0.6 ng/mL |
| C[C@H]1[C@H](Nc2ccc(I)cc2)O[C@@H]2O[C@]3(C)CC[C@H]4[C@H](C)CC[C@@H]1[C@@]24OO3 | 0.33 ng/mL | 0.33 ng/mL |  |
| C[C@H]1[C@H](NS(N)(=O)=O)O[C@@H]2O[C@]3(C)CC[C@H]4[C@H](C)CC[C@@H]1[C@@]24OO3 |  | 2.04 nM | IC50 (Plasmodium falciparum [3]): 1.79 nM; IC50 (Plasmodium falciparum [5]): 3.1 nM |
| COC(=O)Nc1nc2cc(C(=O)c3ccccc3)ccc2n1C(=O)O[C@H]1O[C@@H]2O[C@]3(C)CC[C@H]4[C@H](C)CC[C@@H]([C@H]1C)[C@@]24OO3 |  |  | IC50 (Plasmodium falciparum [4]): 6.86 nM |
